# Reference: article PMC12040169 (PLOS Biology, 2025)
# Assay: in vitro
# Conditions: human, hela cells, % viability
row,Structure (SMILES),"viability at 28.5 h, 10 µM"
1,COc1ccccc1NC(=O)C1CN(S(=O)(=O)c2ccccc2)CCN1S(=O)(=O)c1ccccc1 (centres unmarked) [CBK262673],93.5%
2,COC(=O)[C@@H]1Cc2ncn(C)c2CN1S(=O)(=O)c1ccc(C#N)cc1 [CBK288993],83.9%
3,Cn1cnc2cc(-c3nnn[nH]3)ccc21 [CBK306265],90.2%
4,COCCN1C(=O)CN(Cc2ccccc2)C1=O [CBK162369],95.1%
5,O=S(=O)(Nc1nnc(C(F)(F)F)s1)c1ccc(-c2ccccn2)s1 [CBK062016],91.9%
6,O=C(O)CCCC(=O)NC12CC3CC(CC(C3)C1)C2 [CBK286958],97.4%
7,Cc1ccc(-c2csc3ncn4nnnc4c23)cc1 [CBK019710],92.5%
8,N#Cc1ccc(-c2cc(NCCc3ccncc3)ncn2)cc1 [CBK037787],98.1%
9,CCN1CCCC1CNC(=O)c1cc(Br)cnc1N(C)S(C)(=O)=O (centres unmarked) [CBK076520],93.5%
10,CCCN1CCC(NCC(C)(C)CN(C)C)CC1 [CBK261934],89.3%
11,COc1cc(C(=O)N2CCC(n3c(=O)[nH]c4c(C)cccc43)CC2)ccc1C [CBK155372],94.2%
12,Cc1noc(C)c1C(=O)N1CCc2ccccc2C1 [CBK200333],103%
13,CC(C)S(=O)(=O)n1c(=O)n(Cc2ccc(S(C)(=O)=O)cc2)c2ccccc21 [CBK106529],90.3%
14,c1cn(CC2(Cn3ccnc3)COC2)cn1 [CBK021839],108%
15,COc1ccc(C(=O)N2Cc3nc[nH]c3C[C@H]2c2nc(-c3ccc(OC)cc3)no2)cc1 [CBK288966],107%
16,COc1ccnc(N2CCN(C(=O)c3ccncc3Cl)CC2)n1 [CBK304367],102%
17,Nc1nonc1-n1nnc(C(=O)N/N=C/c2ccc([N+](=O)[O-])cc2)c1-c1ccccc1 [CBK261992],86.4%

row,Structure (SMILES),"viability at 28.5 h, 10 µM"
1,O=C1NC(=O)C(CC(=O)N2CCC(Cn3cncn3)(C3CCCCC3)CC2)N1 (centres unmarked) [CBK136808],94.3%
2,Cc1nc(CC(=O)OC(C)C(=O)N2CCCc3ccccc32)cs1 (centres unmarked) [CBK305285],91.6%
3,COc1ccc(C)cc1NC(=O)CCN1CCN(CCO)CC1 [CBK264199],97.4%
4,COc1cc(C(C)=O)ccc1OCC(O)Cn1c(=O)n(-c2ccccc2)c(=O)c2ccccc21 (centres unmarked) [CBK296677],94.4%
5,CN1CCN(C)C(COc2ccc(C(F)(F)F)cn2)C1 (centres unmarked) [CBK113288],96.8%
6,COc1ccc(-c2cnc3[nH]c(=O)n(C4CC4)c3n2)cc1 [CBK064907],86.9%
7,COc1ccc(C2(C(=O)NCc3ccc4c(c3)OCO4)CC2)cc1 [CBK149829],103%
8,Cc1ccccc1-n1nc(C)c(CN(C)CC2CCN(C)C2)c1C (centres unmarked) [CBK283035],82.6%
9,CC1CCc2c(sc3ncnc(OCC(=O)N4CCOCC4)c23)C1 (centres unmarked) [CBK306000],95.9%
10,CC(C)(C)c1ccc(C(=O)CC(C(=O)O)N2CCN(c3cccc(Cl)c3)CC2)cc1 (centres unmarked) [CBK077385],90.9%
11,O=C(Nc1cccnc1)c1cccc(S(=O)(=O)N2CCCC2)c1 [CBK269846],93.3%
12,CCOc1cccc2sc(Nc3nc4ccc(NC(C)=O)cc4s3)nc12 [CBK287474],90.8%
13,CCn1cc(C2CN(S(=O)(=O)c3cc(C)c(OC)cc3C)CCO2)cn1 (centres unmarked) [CBK304225],84.9%
14,Cn1ccnc1C1(O)CC2CCC(C1)N2C(=O)c1ccccc1Cl (centres unmarked) [CBK284090],99%
15,Cn1cc(CCC(=O)N2CCc3[nH]c4ccc(Cl)cc4c3C2)cn1 [CBK304636],82%
16,Cc1ccc(CN(CCCN(C)C)Cc2cnc(C)n2C)o1 [CBK283188],95.4%
17,CN1CCN(c2ccccc2NC(=S)NC(=O)c2ccco2)CC1 [CBK267909],85.2%

# Same assay, conditions: human, hela cells, % viability, bulk resorufin, single well
row,Structure (SMILES),"viability at 28.5 h, 10 µM"
1,NS(=O)(=O)c1ccc(N/C=C2\C(=O)NC(=O)N(Cc3ccccc3Cl)C2=O)cc1 [CBK265586],92.3%
